Results taken from US10160762B2, “6-alkyl dihydropyrazolopyrimidinone compounds as PDE2 inhibitors” (Merck Sharp & Dohme Corp., priority 2015, dated 2018).

Target: T1, human PDE2A1 (Homo sapiens, UniProt O00408)
T1 construct: GST; purchased BPS Bioscience (San Diego, Calif.) 60020; host or cells: insect cells
Test: IMAP FP PDE assay, human PDE2A1
Type: biochemical
Details: Lab B; read-out: Human PDE2 Ki (nM) Lab B
Summary of the method: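 FP (IMAP) read after 60 min room-temperature reaction of insect-cell GST-human PDE2A1 with 50 nM FAM-cAMP plus 1000 nM cGMP (pH 7.2 Tris, Mg2+, DTT). Compounds titrated 3-fold over ten points. Apparent Ki derived assuming KM of 10,000 nM; enzyme at 20% substrate turnover.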

T1 sequence (O00408 1-920 isoform O00408-2): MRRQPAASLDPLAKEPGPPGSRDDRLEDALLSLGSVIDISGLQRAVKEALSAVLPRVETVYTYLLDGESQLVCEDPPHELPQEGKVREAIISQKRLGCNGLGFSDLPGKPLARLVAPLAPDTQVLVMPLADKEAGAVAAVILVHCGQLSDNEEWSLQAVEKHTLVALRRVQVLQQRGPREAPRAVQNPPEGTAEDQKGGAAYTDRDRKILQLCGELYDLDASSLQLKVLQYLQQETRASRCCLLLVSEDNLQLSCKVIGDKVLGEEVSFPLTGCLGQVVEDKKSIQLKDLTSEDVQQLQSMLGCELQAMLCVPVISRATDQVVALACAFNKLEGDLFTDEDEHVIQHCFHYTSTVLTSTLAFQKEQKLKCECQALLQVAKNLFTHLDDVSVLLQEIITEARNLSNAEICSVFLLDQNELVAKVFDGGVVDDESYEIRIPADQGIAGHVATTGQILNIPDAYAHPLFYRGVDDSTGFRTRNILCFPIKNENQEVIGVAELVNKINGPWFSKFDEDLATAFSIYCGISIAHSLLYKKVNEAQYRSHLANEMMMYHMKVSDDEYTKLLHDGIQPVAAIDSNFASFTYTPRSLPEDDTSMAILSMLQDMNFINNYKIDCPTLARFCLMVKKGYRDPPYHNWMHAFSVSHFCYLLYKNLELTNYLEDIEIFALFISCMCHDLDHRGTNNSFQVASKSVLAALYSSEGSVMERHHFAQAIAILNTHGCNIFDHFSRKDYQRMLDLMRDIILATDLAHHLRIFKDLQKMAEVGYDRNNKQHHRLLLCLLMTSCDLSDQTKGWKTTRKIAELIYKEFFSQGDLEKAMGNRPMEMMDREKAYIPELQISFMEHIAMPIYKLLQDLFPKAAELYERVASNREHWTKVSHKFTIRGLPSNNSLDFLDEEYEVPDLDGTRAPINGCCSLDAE

Structure (SMILES) | Ki
CC(c1ccc(C(F)(F)F)cc1)n1nc(C#N)c2c(=O)[nH]c(CC3CC3)nc21 (single isomer, unassigned) [Example 347] | 1030 nM
COc1cccc(Cc2nc3c(c(C#N)nn3C(C)c3ccc(C(F)(F)F)cc3)c(=O)[nH]2)c1 (single isomer, unassigned) [Example 348] | 4.7 nM
COc1cccc(Cc2nc3c(c(C#N)nn3C(C)c3ccc(C(F)(F)F)cc3)c(=O)[nH]2)c1 (single isomer, unassigned) [Example 349] | 373 nM
CC(c1ccc(C(F)(F)F)cc1)n1nc(C#N)c2c(=O)[nH]c(CC3CCCC3)nc21 (single isomer, unassigned) [Example 350] | 62 nM
CC(c1ccc(C(F)(F)F)cc1)n1nc(C#N)c2c(=O)[nH]c(CC3CCCC3)nc21 (single isomer, unassigned) [Example 351] | 1010 nM
Cc1nc2c(c(CO)nn2C2(c3ccc(C(F)(F)F)cc3)COC2)c(=O)[nH]1 [Example 79, 3-(Hydroxymethyl)-6-methyl-1-(3-(4-(trifluoromethyl)phenyl)oxetan-3-yl)-1H-pyrazolo[3,4-d]pyrimidin-4(5H)-one] | 23 nM
Cc1nc2c(c(CO)nn2C2(c3ccc(C(F)(F)F)cc3)CC2)c(=O)[nH]1 [Example 142, 3-(Hydroxymethyl)-6-methyl-1-(1-(4-(trifluoromethyl)phenyl)cyclopropyl)-1H-pyrazolo[3,4-d]pyrimidin-4(5H)-one] | 8.2 nM
Cc1nc2c(c(C(F)F)nn2C2(c3ccc(C(F)(F)F)cc3)COC2)c(=O)[nH]1 [Example 163, 3-(Difluoromethyl)-6-methyl-1-(3-(4-(trifluoromethyl)phenyl)oxetan-3-yl)-1H-pyrazolo[3,4-d]pyrimidin-4(5H)-one] | 9.5 nM
Cc1nc2c(c(C(F)F)nn2C(C)c2ccc(C3(C(F)(F)F)CC3)cc2)c(=O)[nH]1 (centres unmarked) [Example 164, 3-(Difluoromethyl)-6-methyl-1-(1-(4-(1-(trifluoromethyl)cyclopropyl)phenyl)ethyl)-1H-pyrazolo[3,4-d]pyrimidin-4(5H)-one] | 8.2 nM
Cc1nc2c(c(C(F)F)nn2C(C)c2ccc(C(F)(F)C(F)(F)F)cc2)c(=O)[nH]1 (centres unmarked) [Example 165, 3-(Difluoromethyl)-6-methyl-1-(1-(4-(perfluoroethyl)phenyl)ethyl)-1H-pyrazolo[3,4-d]pyrimidin-4(5H)-one] | 6.3 nM
Cc1nc2c(c(CC(C)(C)O)nn2C(C)c2ccc(C(F)(F)F)cc2)c(=O)[nH]1 (centres unmarked) [Example 247, 3-(2-Hydroxy-2-methylpropyl)-6-methyl-1-(1-(4-(trifluoromethyl)phenyl)ethyl)-1H-pyrazolo[3,4-d]pyrimidin-4(5H)-one] | ~567 nM
Cc1nc2c(c(N)nn2C(C)c2ccc(C(F)(F)F)cc2)c(=O)[nH]1 (centres unmarked) [Example 258, 3-Amino-6-methyl-1-(1-(4-(trifluoromethyl)phenyl)ethyl)-H-pyrazolo[3,4-d]pyrimidin-4(5H)-one] | 42 nM
Cc1nc2c(c(NS(C)(=O)=O)nn2C(C)c2ccc(C(F)(F)F)cc2)c(=O)[nH]1 (centres unmarked) [Example 261, N-(6-Methyl-4-oxo-1-(1 (4-(trifluoromethyl)phenyl)ethyl)-4,5-dihydro-1H-pyrazolo[3,4-d]pyrimidin-3-yl)methanesulfonamide] | ~1800 nM
Cc1nc2c(c(CC3COC3)nn2C(C)c2ccc(C(F)(F)F)cc2)c(=O)[nH]1 (centres unmarked) [Example 289, 6-Methyl-3-(oxetan-3-ylmethyl)-1-(1-(4-(trifluoromethyl)phenyl)ethyl)-1H-pyrazolo[3,4-d]pyrimidin-4(5H)-one] | 388 nM
CC(=O)c1nn([C@@H](C)c2ccc(C(F)(F)F)cc2)c2nc(C)[nH]c(=O)c12 [Example 322, (S)-3-Acetyl-6-methyl-1-(1-(4-(trifluoromethyl)phenyl)ethyl)-1,5-dihydro-4H-pyrazolo[3,4-d]pyrimidin-4-one] | 42 nM
Cc1nc2c(c(C(=O)O)nn2[C@@H](C)c2ccc(C(F)(F)F)cc2)c(=O)[nH]1 [Example 323, (S)-6-Methyl-4-oxo-1-(1-(4-(trifluoromethyl)phenyl)ethyl)-4,5-dihydro-1H-pyrazolo[3,4-d]pyrimidine-3-carboxylic acid] | 798 nM
Cc1nc2c(c(O)nn2[C@@H](C)c2ccc(C(F)(F)F)cc2)c(=O)[nH]1 [Example 329, (S)-3-Hydroxy-6-methyl-1-(1-(4-(trifluoromethyl)phenyl)ethyl)-1,5-dihydro-4H-pyrazolo[3,4-d]pyrimidin-4-one] | 2080 nM

Target: T2, Rhesus PDE2A3 (Macaca mulatta, UniProt B3VTJ2)
T2 construct: made in house; host or cells: AD293 cells, transient transfection; supernatant of sonicated lysate
T2 sequence (B3VTJ2 1-941): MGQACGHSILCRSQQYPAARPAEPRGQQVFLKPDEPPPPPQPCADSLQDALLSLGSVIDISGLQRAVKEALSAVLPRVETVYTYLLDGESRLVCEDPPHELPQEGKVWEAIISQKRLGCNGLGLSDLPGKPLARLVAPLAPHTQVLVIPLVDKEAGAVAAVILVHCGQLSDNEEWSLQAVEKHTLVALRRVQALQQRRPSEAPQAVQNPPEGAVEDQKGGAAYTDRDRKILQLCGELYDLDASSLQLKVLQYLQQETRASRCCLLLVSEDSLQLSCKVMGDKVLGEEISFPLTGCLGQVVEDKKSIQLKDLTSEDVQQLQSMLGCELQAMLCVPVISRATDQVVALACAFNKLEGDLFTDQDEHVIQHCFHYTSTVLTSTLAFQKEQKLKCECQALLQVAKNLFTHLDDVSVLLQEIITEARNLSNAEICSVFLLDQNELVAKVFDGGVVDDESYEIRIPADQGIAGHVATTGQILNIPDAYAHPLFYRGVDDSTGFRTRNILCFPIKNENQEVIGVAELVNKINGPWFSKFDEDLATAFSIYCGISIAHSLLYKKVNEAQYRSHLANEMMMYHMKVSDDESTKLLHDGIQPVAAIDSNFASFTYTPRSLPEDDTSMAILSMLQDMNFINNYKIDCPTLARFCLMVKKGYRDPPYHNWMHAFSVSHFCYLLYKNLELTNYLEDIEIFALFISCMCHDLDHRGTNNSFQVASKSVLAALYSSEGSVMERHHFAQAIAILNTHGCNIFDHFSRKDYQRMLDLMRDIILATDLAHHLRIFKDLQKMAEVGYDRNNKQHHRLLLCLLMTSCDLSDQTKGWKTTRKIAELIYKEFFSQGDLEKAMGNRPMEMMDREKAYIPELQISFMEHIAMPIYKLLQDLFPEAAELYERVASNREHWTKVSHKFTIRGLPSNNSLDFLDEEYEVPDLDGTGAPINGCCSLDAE
Test: PDE2 fluorescence polarization (IMAP FP) inhibition assay, rhesus PDE2A3
Type: biochemical, rhesus macaque
Details: Lab B; read-out: Rhesus PDE2 Ki (nM) Lab B
Method: The activity of the compounds in accordance with the present invention as PDE2 inhibitors may be readily determined using a fluorescence polarization (FP) methodology (Huang, W., et al., J. Biomol Screen, 2002, 7: 215).
The PDE2 inhibitory activity of the compounds of the present invention was determined in accordance with the following experimental method. Rhesus PDE2A3 was amplified from rhesus macaque brain cDNA (Biochain Institute, Hayward, Calif.) using primers based on human PDE2A sequence (accession NM_002599.3) where the forward primer containing a Kozak consensus was 5′-[…]-3′ and the reverse primer was 5′-[…]-3′. Amplification with Easy-A High-Fidelity PCR cloning enzyme (Stratagene, La Jolla, Calif.) was 95° C. for 2 minutes followed by thirty three cycles of 95° C. for 40 seconds, 52° C. for 30 seconds, and 72° C. for 2 minutes 48 seconds. Final extension was 72° C. for 7 minutes. The PCR product was TA cloned into pcDNA3.3-TOPO (Invitrogen, Carlsbad, Calif.) according to standard protocol. A consensus sequence was developed from multiple clones and then deposited into GenBank (EU812167). AD293 cells (Stratagene, La Jolla, Calif.) with 70-80% confluency were transiently transfected with rhesus PDE2A3/pcDNA3.3-TOPO using Lipofectamine 2000 according to manufacturer specifications (Invitrogen, Carlsbad, Calif.). Cells were harvested 48 hours post-transfection and lysed by sonication (setting 3, 10×5 sec pulses) in a buffer containing 20 mM HEPES pH 7.4, 1 mM EDTA and Complete Protease Inhibitor Cocktail Tablets (Roche, Indianapolis, Ind.). Lysate was collected by centrifugation at 75,000×g for 20 minutes at 4° C. and supernatant utilized for evaluation of PDE2 activity. The fluorescence polarization assay for cyclic nucleotide phosphodiesterases was performed using an IMAP® FP kit supplied by Molecular Devices, Sunnyvale, Calif. (product #R8139). […] Assays were performed at room temperature in 384-well microtiter plates with an incubation volume of 20.2 μL. Solutions of test compounds were prepared in DMSO and serially diluted with DMSO to yield 8 μL of each of 10 solutions differing by 3-fold in concentration, at 32 serial dilutions per plate. […] 0% of inhibition is determined by using DMSO (1% final concentrations).
A Labcyte Echo 555 (Labcyte, Sunnyvale, Calif.) is used to dispense 200 nL from each well of the titration plate to the 384 well assay plate. Ten microliters of a solution of enzyme (1/2000 final dilution from aliquots; sufficient to produce 20% substrate conversion) was added to the assay plate. Next 10 uL of a separate solution of the substrate FAM-labeled cAMP (50 nM final concentration product # R7506 from Molecular Devices) and the activator cGMP (1 uM final concentration), prepared in the assay buffer (10 mM Tris HCl, pH 7.2, 10 mM MgCl2, 0.05% NaN3 0.01% Tween-20, and 1 mM DTT) was added to the assay plate and shaken to mix. The reaction is allowed to proceed at room temperature for 60 minutes. A binding solution is then made from the kit components, comprised of 80% Solution A, 20% Solution B and binding reagent at a volume of 1/600 the total binding solution. The enzymatic reaction is stopped by addition of 60 μL of the binding solution to each well of the assay plates and the plates are sealed and shaken for 30 seconds. The plate was incubated at room temperature for at least one hour prior to determining the fluorescence polarization (FP). The parallel and perpendicular fluorescence of each well of the plate was measured using a Tecan Genios Pro plate reader (Tecan, Switzerland) or Perkin Elmer EnVision™ plate reader (Waltham, Mass.). Fluorescence polarization (mP) was calculated from the parallel (S) and perpendicular (P) fluorescence of each sample well and the analogous values for the median control well, containing only substrate (So and Po), using the following equation: Polarization(mP)=1000*(S/So−P/Po)/(S/So+P/Po).

Structure (SMILES) | Ki
CC(c1ccc(C(F)(F)F)cc1)n1nc(CO)c2c(=O)[nH]c(-c3ccco3)nc21 (racemic) [Example 294, 6-Furan-2-yl-3-(hydroxymethyl)-1-{1-[4-(trifluoromethyl)phenyl]ethyl}-1,5-dihydro-4H-pyrazolo[3,4-d]pyrimidin-4-one] | ~2590 nM
CC(c1ccc(C(F)(F)F)cc1)n1nc(CO)c2c(=O)[nH]c(-c3cnn(C)c3)nc21 (racemic) [Example 295, 3-(Hydroxymethyl)-6-(1-methyl-1H-pyrazol-4-yl)-1-{1-[4-(trifluoromethyl)phenyl]ethyl}-1,5-dihydro-4H-pyrazolo[3,4-d]pyrimidin-4-one] | > 2970 nM
Cc1nc2c(c(CO)nn2C(c2ccc(C(F)(F)F)cc2)C2(C)CC2)c(=O)[nH]1 (single isomer, unassigned) [Example 25, (S)- or (R)-3-(Hydroxymethyl)-6-methyl-1-((1-methylcyclopropyl)(4-(trifluoromethyl)phenyl)methyl)-1H-pyrazolo[3,4-d]pyrimidin-4(5H)-one] | 160 nM
